According to patent publication US20080280920A1, “Plasminogen Activator Inhibitor-1 Inhibitors” (priority 2005, published 2008):

Legend:
Assay type in all cases: cell-based, human
K-562 = assay: NCI anticancer screen, K-562; conditions: K-562, Leukemia, 48 h
MOLT-4 = assay: NCI anticancer screen, MOLT-4; conditions: MOLT-4, Leukemia, 48 h
SR = assay: NCI anticancer screen, SR; conditions: Leukemia, 48 h
A549/ATCC = assay: NCI anticancer screen, A549/ATCC; conditions: Non-Small Cell Lung, 48 h
HOP-92 = assay: NCI anticancer screen, HOP-92; conditions: HOP-92, Non-Small Cell Lung, 48 h
NCI-H460 = assay: NCI anticancer screen, NCI-H460; conditions: NCI-H460, Non-Small Cell Lung, 48 h
HCC-2998 = assay: NCI anticancer screen, HCC-2998; conditions: HCC-2998, Colon, 48 h
HCT-15 = assay: NCI anticancer screen, HCT-15; conditions: HCT-15, Colon, 48 h
HT29 = assay: NCI anticancer screen, HT29; conditions: HT29, Colon, 48 h
KM12 = assay: NCI anticancer screen, KM12; conditions: KM12, Colon, 48 h
SW-620 = assay: NCI anticancer screen, SW-620; conditions: SW-620, Colon, 48 h
SF-268 = assay: NCI anticancer screen, SF-268; conditions: SF-268, CNS, 48 h
SNB-19 = assay: NCI anticancer screen, SNB-19; conditions: SNB-19, CNS, 48 h
SNB-75 = assay: NCI anticancer screen, SNB-75; conditions: SNB-75, CNS, 48 h
MALME-3M = assay: NCI anticancer screen, MALME-3M; conditions: Melanoma, 48 h
M14 = assay: NCI anticancer screen, M14; conditions: M14, Melanoma, 48 h
UACC-257 = assay: NCI anticancer screen, UACC-257; conditions: UACC-257, Melanoma, 48 h
OVCAR-3 = assay: NCI anticancer screen, OVCAR-3; conditions: OVCAR-3, Ovarian, 48 h
OVCAR-4 = assay: NCI anticancer screen, OVCAR-4; conditions: OVCAR-4, Ovarian, 48 h
OVCAR-5 = assay: NCI anticancer screen, OVCAR-5; conditions: OVCAR-5, Ovarian, 48 h
OVCAR-8 = assay: NCI anticancer screen, OVCAR-8; conditions: OVCAR-8, Ovarian, 48 h
SK-OV-3 = assay: NCI anticancer screen, SK-OV-3; conditions: SK-OV-3, Ovarian, 48 h
786-0 = assay: NCI anticancer screen, 786-0; conditions: 786-0, Renal, 48 h
A498 = assay: NCI anticancer screen, A498; conditions: A498, Renal, 48 h
CAKI-1 = assay: NCI anticancer screen, CAKI-1; conditions: CAKI-1, Renal, 48 h
SN12C = assay: NCI anticancer screen, SN12C; conditions: Renal, 48 h
PC-3 = assay: NCI anticancer screen, PC-3; conditions: PC-3, Prostate, 48 h
MCF7 = assay: NCI anticancer screen, MCF7; conditions: MCF7, Breast, 48 h
NCI/ADR-RES = assay: NCI anticancer screen, NCI/ADR-RES; conditions: Breast, 48 h
HS 578T = assay: NCI anticancer screen, HS 578T; conditions: Breast, 48 h
BT-549 = assay: NCI anticancer screen, BT-549; conditions: BT-549, Breast, 48 h
[1] = Homo sapiens, read-out: LC50 (the source's name)

SMILES: COc1cc(CNCC2CCN(C(=O)OC(C)(C)C)CC2)cc(CN2CCN(c3ccccn3)CC2)c1O [Compound Q012132, 2-Methoxy-4-({[(N-t-butyloxycarbonylpiperidin-4-yl)methyl]amino}methyl)-6-[(4-pyridin-2-ylpiperazin-1-yl)methyl]phenol]
- GI50 (K-562; Homo sapiens, K562): 5.21 µM
- CC50 (K-562; Homo sapiens, K562, read-out: LC50 (the source's name)): 73.5 µM
- TGI (K-562): 19.6 µM
- GI50 (MOLT-4; Homo sapiens): 13 µM
- CC50 (MOLT-4; [1]): > 100 µM
- TGI (MOLT-4): 42.4 µM
- GI50 (SR; Homo sapiens): 11 µM
- CC50 (SR; [1]): 84.4 µM
- TGI (SR): 30.5 µM
- GI50 (A549/ATCC; Homo sapiens): 31.2 µM
- LC50 (A549/ATCC; Homo sapiens): > 100 µM
- TGI (A549/ATCC): >100 µM
- TGI (HOP-92): 26.6 µM
- GI50 (HOP-92; Homo sapiens): 10.7 µM
- LC50 (concentration killing 50% of starting cells) (HOP-92; Homo sapiens): 66.3 µM
- GI50 (NCI-H460; Homo sapiens): 21.3 µM
- CC50 (NCI-H460; [1]): 81.7 µM
- TGI (NCI-H460): 41.7 µM
- TGI (HCC-2998): 28.9 µM
- GI50 (HCC-2998; Homo sapiens): 14.5 µM
- LC50 (HCC-2998; Homo sapiens): 57.7 µM
- TGI (HCT-15): 36.9 µM
- GI50 (HCT-15; Homo sapiens): 16.8 µM
- CC50 (HCT-15; [1]): 80.8 µM
- TGI (HT29): 16.7 µM
- GI50 (HT29; Homo sapiens, HT-29): 3.11 µM
- CC50 (HT29; Homo sapiens, HT-29, read-out: LC50 (the source's name)): 63 µM
- GI50 (KM12; Homo sapiens): 31.6 µM
- CC50 (KM12; [1]): > 100 µM
- TGI (KM12): >100 µM
- GI50 (SW-620; Homo sapiens): 16.1 µM
- CC50 (SW-620; [1]): 59.1 µM
- TGI (SW-620): 30.8 µM
- GI50 (SF-268; Homo sapiens): 18.5 µM
- LC50 (SF-268; Homo sapiens): > 100 µM
- TGI (SF-268): 44.1 µM
- GI50 (SNB-19; Homo sapiens): 41.8 µM
- CC50 (SNB-19; [1]): > 100 µM
- TGI (SNB-19): >100 µM
- GI50 (SNB-75; Homo sapiens): 22.3 µM
- LC50 (concentration killing 50% of cells) (SNB-75; Homo sapiens): > 100 µM
- TGI (SNB-75): 49.8 µM
- GI50 (MALME-3M; Homo sapiens): 15.7 µM
- CC50 (MALME-3M; [1]): 65.5 µM
- TGI (MALME-3M): 32.0 µM
- GI50 (M14; Homo sapiens): 5.8 µM
- CC50 (M14; [1]): 41.9 µM
- TGI (M14): 17.5 µM
- GI50 (UACC-257; Homo sapiens): 18.4 µM
- CC50 (UACC-257; [1]): > 100 µM
- TGI (UACC-257): 45.7 µM
- GI50 (OVCAR-3; Homo sapiens): 33.1 µM
- CC50 (OVCAR-3; [1]): > 100 µM
- TGI (OVCAR-3): >100 µM
- GI50 (OVCAR-4; Homo sapiens): 47.8 µM
- CC50 (OVCAR-4; [1]): > 100 µM
- TGI (OVCAR-4): >100 µM
- GI50 (OVCAR-5; Homo sapiens): 29.3 µM
- CC50 (OVCAR-5; [1]): > 100 µM
- TGI (OVCAR-5): >100 µM
- GI50 (OVCAR-8; Homo sapiens): 22.3 µM
- CC50 (OVCAR-8; [1]): > 100 µM
- TGI (OVCAR-8): 61.8 µM
- GI50 (SK-OV-3; Homo sapiens): 29.4 µM
- CC50 (SK-OV-3; [1]): > 100 µM
- TGI (SK-OV-3): 98.8 µM
- TGI (786-0): 28.2 µM
- GI50 (786-0; Homo sapiens): 14.9 µM
- CC50 (786-0; [1]): 53.1 µM
- TGI (A498): 36.3 µM
- GI50 (A498; Homo sapiens): 17.8 µM
- CC50 (A498; [1]): 74.1 µM
- TGI (CAKI-1): 51.7 µM
- GI50 (CAKI-1; Homo sapiens): 22.8 µM
- CC50 (CAKI-1; [1]): > 100 µM
- CC50 (SN12C; [1]): > 100 µM
- TGI (SN12C): >100 µM
- GI50 (PC-3; Homo sapiens): 21.8 µM
- CC50 (PC-3; [1]): > 100 µM
- TGI (PC-3): 81.1 µM
- GI50 (MCF7; Homo sapiens): 18.6 µM
- CC50 (MCF7; [1]): 73 µM
- TGI (MCF7): 36.9 µM
- TGI (NCI/ADR-RES): 79.2 µM
- GI50 (NCI/ADR-RES; Homo sapiens): 21.4 µM
- CC50 (NCI/ADR-RES; [1]): > 100 µM
- TGI (HS 578T): 38.2 µM
- GI50 (HS 578T; Homo sapiens): 16.4 µM
- CC50 (HS 578T; [1]): 88.6 µM
- TGI (BT-549): 28.9 µM
- GI50 (BT-549; Homo sapiens): 14.6 µM
- CC50 (BT-549; [1]): 57.1 µM
